Patent US11311522B1 (Cavion, Inc., priority 2018, dated 2022)

Key:
[1] = 90-day oral toxicology in rats; details: both, rat, in vivo
[2] = test system: patients with schizophrenia; experiment: PN004: efficacy in acutely psychotic patients with schizophrenia (PANSS); details: human, in vivo
From the text: The primary efficacy endpoint was the mean change from baseline in the Positive and Negative Syndrome Scale (PANSS) total score at Week 4; secondary efficacy endpoints included responder rates on the PANSS total score at Week 4 and the change from baseline in the Clinical Global Impressions—Severity of Illness Scale at Week 4. Safety was monitored by adverse events, laboratory evaluations, ECGs, Holter monitoring, vital signs, the Simpson-Angus Scale, the Barnes Akathisia Rating Scale, the Abnormal Involuntary Movement Scale, and the Columbia Suicide-Severity Rating scale (C-SSRS).

[3] = 4-week oral toxicology in rats (with FOB); details: for NOAEL at 4 weeks / AUC / Cmax: rat; for NOAEL at 4 weeks: in vivo; for AUC / Cmax: plasma, Day 28, mean (SD)
[4] = Sprague-Dawley rat, 30, 300, or 2000 mg/kg/day oral gavage for 4 weeks

With `CC(C)c1ccc(CC(=O)N[C@H](C)c2ccc(OCC(F)(F)F)cn2)cc1` [CX-8998] the NOAEL at 90 days ([1]; Sprague-Dawley, po) was 300 mg/kg/day, the NOAEL at 90 days ([1]; oral) was 300 mg/kg/day and the “PANSS total score change at Week 4 and secondary endpoints vs placebo” value [2] was “No statistically significant differences”. For the same molecule, the FOB findings [3, 4] was “non-adverse FOB changes were also”, the “female reproductive organ findings (extended diestrus)” value [3, 4] was “Reversible changes” and the NOEL ([3]; both sexes) was under 30 mg/kg/day. The NOAEL at 4 weeks ([3]; both, Sprague-Dawley, po) was 30 mg/kg, the “LOEL for the FOB” value ([3]; female rats, Day 1) was 30 mg/kg/day and the NOAEL at 4 weeks ([3]; female, oral) was under 30 mg/kg/day. It also gave an AUC ([3]; female, po, 300 mg/kg/day, AUC24, Female rats, 300 mg/kg/day oral gavage) of 438 µM·h, a Cmax ([3]; female, po, 300 mg/kg/day, Female rats, 300 mg/kg/day oral gavage) of 28.3 µM and a Cmax ([3]; female, po, 2000 mg/kg/day, Female rats, 2000 mg/kg/day oral gavage) of 33.5 µM. The NOAEL at 4 weeks ([3]; male, oral) was 30 mg/kg/day, the AUC ([3]; male, po, 30 mg/kg/day, AUC24, Male rats, 30 mg/kg/day oral gavage) was 35.1 µM·h and the Cmax ([3]; male, po, 300 mg/kg/day, Male rats, 300 mg/kg/day oral gavage) was 26.1 µM. It also gave an AUC ([3]; male, po, 2000 mg/kg/day, AUC24, Male rats, 2000 mg/kg/day oral gavage) of 467 µM·h and a Cmax ([3]; male, po, 2000 mg/kg/day, Male rats, 2000 mg/kg/day oral gavage) of 28.9 µM.
